Assay results from patent publication US20240269293A1, “PROTEIN-MACROMOLECULE CONJUGATES AND METHODS OF USE THEREOF” (BEIJING XUANYI PHARMASCIENCES CO., LTD., priority 2021, published 2024).
Read-outs that look alike come from different tables or passages of the source.

What was measured:
Treg cells = test: pSTAT5 signaling in human LRS-derived PBMC, Treg cells (flow cytometry); type: cell-based; conditions: 45 minute incubation
Description: (§1) To determine how test compounds affect activation of primary immune cell subpopulations, concentration-response profiling of lymphocyte activation in human LRS-derived peripheral blood mononuclear cell (PBMC) samples were performed using multi-color flow cytometry.
(§2) An LRS was acquired day of draw and PBMC was extracted using a ficoll density gradient protocol. PBMC was resuspended in RPMI supplemented with 10% Fetal Bovine Serum and 1% Pen-Strep Glutamine. PBMC was incubated at 37° C. for 30 minutes prior to stimulation.
(§3) A 12-point dose curve with 5-fold dilutions was created for all compounds. Top dose was 30 ug mL. Dose curves were diluted in PBS w/0.1% BSA and added as 10× stocks. After a 45 minute incubation, samples were fixed and stained with antibodies to detect the phosphorylated form of the transcription factor STAT5 (pTATA5), and a panel of surface markers to follow pSTAT5 formation in specific T Cell and natural killer (NK) cell subpopulation.
(§4) Samples were stained with the following pre-perm panel: CD3, CD25, CD8, CD56, CD16, CD4, Dump (CD14), Dump (CD19), and CD127. Stains were incubated for 30 minutes then washed out. Streptavidin BV421 (Biolegend cat #405225) was then added and incubated for 20 minutes. Streptavidin was washed out and samples were MeOH permed and stained with the following post-perm panel: FOXP3. STAT5, Dump (CD15). Stains were incubated for 60 minutes then washed out and analyzed by flow cytometry.
(§5) Flow cytometry data were analyzed for activation of different T and NK cell subsets in concentration-response mode, reading pSTAT5 accumulation after treatment with test compounds. The median fluorescence intensity for pSTAT5 was used to create the dose curves. EC50 values for NK cells, Treg cells, CD8+ T cells were calculated from the concentration-response curves.

[1] = tested on: MC38 murine colon carcinoma; test: Subcutaneous MC38 murine colon carcinoma syngeneic model; type: in vivo, C57BL/6 mouse; conditions: 2 mg/kg IP b.i.d. × 5, 2 cycles
Description: 1×10^6 MC38 cells in 0.1 ml of PBS were implanted subcutaneously for each 7-10 weeks old syngeneic female C57BL/6 mouse in the right front flank region. Tumors were allowed to grow to palpable size, i.e., 80-100 cu mm before randomization and assigning groups (n=3) as designed. The mice were administered test compounds i.e., IL-2, rIL-2-polymer conjugates of vehicle at different dose concentrations and dose regimes as indicated in Table 12. The body weights and tumor volumes were measured three times per week.
Tumor growth inhibition following the administration of rIL-2 and rIL-2-polymer conjugates at different administration schemes were provided in FIG. 8. The tumor growth inhibition (TGI) for different treatment groups, complete response (CR) rate, and toxicity were shown in Table 13. Tumor Growth Inhibition; TGI %=(1−ΔT/ΔC)×100; Ti and Ci as the mean tumor volumes of the treatment and vehicle groups on the measurement day; T0 and C0 as the mean tumor volumes of the treatment and vehicle groups on Day 0.

CTLL-2 cells = test: CTLL-2 cell proliferation assay; type: cell-based, mouse
Description: CTLL-2 cells (mouse cytotoxic T lymphocyte cell line) were maintained in complete RPMI 1640 medium supplemented with 10% fetal bovine serum, and 10% IL-2 culture supplement (T-STIM™ with ConA (concanavalin-A)) at 37° C. under a 5% CO2 atmosphere. The cells were cultured in suspension until they reach a cell density of 2-3×10^5 cells/ml before splitting.
For the activity assay, 3-4 days after the last split, the cells were washed three times in Dulbecco's phosphate buffered saline. The cells were then re-suspended in supplemented media without T-STIM™ at a cell density of ˜5×10^5 cells/mL, and plated in 96-well white walled clear bottom microplates at 90 μl/well. Experiments were also conducted using supplemented media (without T-STIM™) adjusted to pH 6.7-7, in order to minimize the release of conjugates during the course of incubation. Then, 10 μl of 10× concentrations of test compound, diluted in supplemented media without T-STIM™, was added. The cells were incubated at 37° C. in a 5% CO2 atmosphere for 48 hours.
The activity of both released IL-2 and unreleased conjugates were tested. The test compounds were stored under acidic condition (10 mM, sodium acetate buffer, pH 4) to stabilize conjugation. To test the activity of conjugates, the sample was diluted from the storage buffer into supplemented media ˜ one hour prior to the assay. […]

[2] = tested on: CT26 murine colon carcinoma; type: in vivo
Description: 5×10^5 CT26 cells in 0.1 ml of PBS were implanted subcutaneously for each 7-10 weeks old syngeneic female BALB/c mouse in the right front flank region. Tumors were allowed to grow to palpable size, i.e., 80-110 cu mm before randomization and assigning groups (n=8) as designed. The mice were administered test compounds i.e., rIL-2, rIL-2-polymer conjugates of vehicle at different dose concentrations and dose regimes as indicated in Tables 6-8. The body weights and tumor volumes were measured three times per week. Mice that have been tumor free for more than 30 days were re-challenged in the left front flank with CT26 tumor cells (5×10^5) in 0.1 mal of PBS.
Tumor growth inhibition following the administration of rIL-2 and rIL-2-polymer conjugates at different administration schemes were provided in FIGS. 5A-7B. The tumor growth inhibition (TGI) for different treatment groups, complete response (CR) rate, toxicity and rechallenge results were shown in Tables 9-11. Tumor Growth Inhibition; TGI %=(1−ΔT/ΔC)×100; Ti and Ci as the mean tumor volumes of the treatment and vehicle groups on the measurement day; T0 and C0 as the mean tumor volumes of the treatment and vehicle groups on Day 0.

CD8+ T cells = test: pSTAT5 signaling in human LRS-derived PBMC, CD8+ T cells (flow cytometry); type: cell-based; conditions: for pSTAT5 EC50, CD8+ T cells: 45 minute incubation
Description: as §1, §2, §3, §4, §5

NK cells = test: pSTAT5 signaling in human LRS-derived PBMC, NK cells (flow cytometry); type: cell-based; conditions: 45 minute incubation
Description: as §1, §2, §3, §4, §5

[3] = tested on: metastatic melanoma and renal cell carcinoma; conditions: high-dose regimen administered every eight hours; cited from earlier work
[4] = Table 9, 2 mg/kg IP b.i.d. × 5, 2 cycles
[5] = Table 11, 2 mg/kg IP b.i.d. × 5, 2 cycles

Example 24: recombinant IL-2 of SEQ ID NO:1 expressed in E. coli, used as control
pSTAT5 EC50, Treg cells (Treg cells; Run 1): 0.04 ng/mL
pSTAT5 EC50, Treg cells (Treg cells; Run 2): 0.26 ng/mL
pSTAT5 EC50, Treg cells (Treg cells; Run 3): 0.02 ng/mL
TGI (day 15) ([1]; Table 13 (FIG. 8)): 100.75%
CR (day 38) (tumor free mice/mice treated) ([1]; Table 13): 1/8
EC50 (CTLL-2 cells; Table 3A, 48 hour incubation, CCK8): 1.03 pM
EC50, CTLL-2 cell proliferation (CTLL-2 cells; Table 3B, unreleased conjugate (rIL-2 control as such)): 0.78 ng/mL
TGI (day 19) ([2]; Table 9 (FIGS. 5A-5B), 2 mg/kg IP b.i.d. × 5, 2 cycles): 61.76%
CR (tumor free mice/mice treated) [2, 4]: 1/8
Re-challenge (final tumor free mice/re-challenged mice) [2, 4]: 1/1
TGI (day 3) ([2]; Table 10 (FIGS. 6A-6B), 3 mg/kg (first cycle) IP, 2 mg/kg (second cycle) IV, b.i.d. × 5, 2 cycles): 95.71% (day 3)
CR (tumor free mice/mice treated) ([2]; Table 10, 3, 2 mg/kg b.i.d. × 5, 2 cycles): 0/8
TGI (day 17) ([2]; Table 11 (FIGS. 7A-7B), 2 mg/kg IP b.i.d. × 5, 2 cycles): 102.41%
CR (tumor free mice/mice treated) [2, 5]: 1/8
Re-challenge (final tumor free mice/re-challenged mice) [2, 5]: 1/1
CD8/Treg ratio (pSTAT5 EC50) (CD8+ T cells; Run 1): 928
pSTAT5 EC50, CD8+ T cells (CD8+ T cells; Run 1): 37.10 ng/mL
CD8/Treg ratio (pSTAT5 EC50) (CD8+ T cells; Run 2): 302
pSTAT5 EC50, CD8+ T cells (CD8+ T cells; Run 2): 78.50 ng/mL
CD8/Treg ratio (pSTAT5 EC50) (CD8+ T cells; Run 3): 1874
pSTAT5 EC50, CD8+ T cells (CD8+ T cells; Run 3): 37.48 ng/mL
pSTAT5 EC50, NK cells (NK cells; Run 1): 9.34 ng/mL
pSTAT5 EC50, NK cells (NK cells; Run 2): 22.02 ng/mL
pSTAT5 EC50, NK cells (NK cells; Run 3): 4.01 ng/mL

aldesleukin
Durable responses [3]: up to 25%
